Assay results as given in US5801152A, “Antracycline disaccharides, process for their preparation, and pharmaceutical compositions containing them” (A. Menarini Industrie Farmaceutiche Riunite S.r.l., priority 1993, dated 1998).
In brackets after ≈: the same amount, converted by molar mass. Where a name gives a salt, the structure may show the parent alone. Read-outs that look alike come from different tables or passages of the source.

Legend:
[1] = test system: H-460 (non-small cell lung cancer) cells; assay: Cytotoxic activity in vitro, growth inhibition test, H-460 (non-small cell lung cancer); assay type: cell-based; conditions: Homo sapiens
Method: (§1) was tested, in comparison with doxorubicin, against a variety of human tumors of different histotypes including ovarian carcinoma, lung cancer , breast cancer, cervical carcinoma, colon cancer.
(§2) Cell survival, following test compound exposure, was evaluated by the growth inhibition test, with the exception of small cell lung cancer cell lines (SCLC). Cells in the logarithmic phase of growth were harvested and placed into 6-well. Twenty-four h after seeding, cells were exposed to test compounds for different times. After replacement with drug-free medium, cells were harvested and counted 72 h following compound exposure. In the case of SCLC, MCF-7 and LOVO, the MTT assay has been used and the colorimetric evaluation of survival was performed at the end of the incubation time (24 or 96 h). The results obtained from cytotoxicity experiments are expressed as IC50 (i.e., concentration required for 50% inhibition of cell growth).
(§3) The test compounds were dissolved in distilled water and then diluted in culture medium.

[2] = test system: human ovarian carcinoma A2780; assay: Effect against human ovarian carcinoma A2780 (in vivo), athymic mice; design: species or system human tumor in athymic mice; conditions: for toxicity deaths / tumor inhibition (Tumor Weight Inhibition %, TWI%): i.v., optimal dose: DXR 7 mg/Kg, IIa 8.5 mg/Kg (days 11, 18, 25), IIc 5 mg/Kg (days 11, 15, 18, 21, 25); for tumor inhibition (Tumor Weight Inhibition %, TWI%): determined 7-10 days after last treatment; for antitumor activity compared with doxorubicin (in words): against A2780 ovarian carcinoma
Method: (§4) For in vivo studies athymic mice were injected subcutaneous with tumor fragments in both flanks. Growth of tumors was followed by twice weekly caliper measurement of length and width. Tumor weight was calculated using the formula: mg=volume in mm^3 =width^2 ×length/2 (considering density=1).
(§5) The test compounds were delivered, at the optimal doses and schedules, intravenously (i.v.) to tumor-bearing mice starting at different times in the different tumors using (see experiments for details). The effects achieved by the treatments were expressed as Tumor Weight Inhibition % (TWI%) in treated versus control mice, determined 7-10 days after the last drug treatment.

MCF-7 (breast) cells = assay: Cytotoxic activity in vitro, MTT assay, MCF-7 (breast); assay type: cell-based; conditions: Homo sapiens
Method: as §1, §2, §3

[3] = test system: human small cell lung carcinoma POVD; assay: Effect against human small cell lung carcinoma POVD (in vivo), athymic mice; design: species or system human tumor in athymic mice; conditions: for antitumor activity (in words): SCLC tumor POVD; for toxicity deaths / tumor inhibition (Tumor Weight Inhibition %, TWI%): i.v., optimal dose: DXR 7 mg/Kg, IIa 8.5 mg/Kg (days 10, 17, 24), IIc 5 mg/Kg (days 10, 14, 17, 21, 24); for tumor inhibition (Tumor Weight Inhibition %, TWI%): determined 7-10 days after last treatment
Method: as §4, §5

LOVO (colon) cells = assay: Cytotoxic activity in vitro, MTT assay, LOVO (colon); assay type: cell-based; conditions: Homo sapiens
Method: as §1, §2, §3

A431 (cervix) cells = assay: Cytotoxic activity in vitro, growth inhibition test, A431 (cervix); assay type: cell-based; conditions: Homo sapiens
Method: as §1, §2, §3

A2780 (ovarian) cells = assay: Cytotoxic activity in vitro, growth inhibition test, A2780 (ovarian); assay type: cell-based; conditions: Homo sapiens
Method: as §1, §2, §3

[4] = test system: POVD (small cell lung cancer) cells; assay: Cytotoxic activity in vitro, MTT assay, POVD (small cell lung cancer); assay type: cell-based; conditions: Homo sapiens
Method: as §1, §2, §3

[5] = NCI-H460, H-460 (non-small cell lung cancer), drug exposure 24 h, read-out: IC50
[6] = MCF7, MCF-7 (breast), drug exposure 24 h, read-out: IC50
[7] = LOVO (colon), drug exposure 24 h, read-out: IC50
[8] = A-431, A431 (cervix), drug exposure 24 h, read-out: IC50
[9] = A2780 (ovarian), drug exposure 24 h, read-out: IC50
[10] = POVD (small cell lung cancer), drug exposure 96 h, read-out: IC50

SMILES	IC50 ([1]; NCI-H460, 24 h) [µg/mL]	toxicity deaths [2]	tumor inhibition (Tumor Weight Inhibition %, TWI%) [2] [%]	IC50 (MCF-7 (breast) cells; MCF7, 24 h) [µg/mL]	antitumor activity (in words) [3]	toxicity deaths [3]	tumor inhibition (Tumor Weight Inhibition %, TWI%) [3] [%]	IC50 (LOVO (colon) cells; LoVo, 24 h) [µg/mL]	IC50 (A431 (cervix) cells; A-431, 24 h) [µg/mL]	IC50 (A2780 (ovarian) cells; A2780, 24 h) [µg/mL]	IC50 ([4]; 96 h) [µg/mL]	IC50 [1, 5] [µg/mL]	antitumor activity compared with doxorubicin (in words) [2]	IC50 (MCF-7 (breast) cells; [6]) [µg/mL]	IC50 (LOVO (colon) cells; [7]) [µg/mL]	IC50 (A431 (cervix) cells; [8]) [µg/mL]	IC50 (A2780 (ovarian) cells; [9]) [µg/mL]	IC50 [4, 10] [µg/mL]
COc1cccc2c1C(=O)c1c(O)c3c(c(O)c1C2=O)C[C@@](O)(C(=O)CO)C[C@@H]3O[C@H]1C[C@H](N)[C@H](O)[C@H](C)O1 [DXR, doxorubicin, reference compound]	0.02 (≈ 0.0368 µM)	0/5	68	0.01 (≈ 0.0184 µM)	refractory	0/5	44	0.01 (≈ 0.0184 µM)	0.036 (≈ 0.0662 µM)	0.03 (≈ 0.0552 µM)	0.034 (≈ 0.0626 µM)							
CC(=O)[C@]1(O)Cc2c(O)c3c(c(O)c2[C@@H](O[C@H]2C[C@H](O)[C@H](O[C@H]4C[C@H](N)[C@H](O)[C@H](C)O4)[C@H](C)O2)C1)C(=O)c1ccccc1C3=O [IIa, 7-0-[2,6-dideoxy-4-0-(2,3,6-trideoxy-3-amino-a-L-lyxo-exopyranosyl)-a-L-lyxo-exopyranosyl]-4-demethoxy-daunorubicinone hydrochloride]		0/5	75		very high antitumor activity	0/5	80					0.015	at least the same effectiveness than doxorubicin	0.01	0.0065	0.012	0.001	0.015
C[C@@H]1O[C@@H](O[C@@H]2[C@H](C)O[C@@H](O[C@H]3C[C@](O)(C(=O)CO)Cc4c(O)c5c(c(O)c43)C(=O)c3ccccc3C5=O)C[C@@H]2O)C[C@H](O)[C@@H]1O [IIb, 7-0-[2,6-dideoxy-4-0-(2,6-dideoxy-a-L-lyxo-exopyranosyl)-a-L-lyxo-exopyranosyl]-4-demethoxy-doxorubicinone hydrochloride]												0.018		0.015	0.0085	0.026	0.01	0.02
C[C@@H]1O[C@@H](O[C@@H]2[C@H](C)O[C@@H](O[C@H]3C[C@](O)(C(=O)CO)Cc4c(O)c5c(c(O)c43)C(=O)c3ccccc3C5=O)C[C@@H]2O)C[C@H](N)[C@@H]1O [IIc, 7-0-[2,6-dideoxy-4-0-(2,3,6-trideoxy-3amino-a-L-lyxo-exopyranosyl)-a-L-lyxo-exopyranosyl]-4-demethoxy-doxorubicinone hydrochloride]		0/5	99		very high antitumor activity	0/5	91					0.01	antitumor activity greatly superior to that of the parent compund	0.0056	0.01	0.016	0.005	0.011
